Results: the supplement of paper PMC10883282
± gives the standard deviation of the averaged measurements.

Test system: SW1353
Test: relative viability vs DMSO control (72 h) (fraction); higher = more viable cells
Method in brief: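 Sarcoma cell lines were grown in 384-well plates seeded toward 80–90% confluence and exposed 24 h later to serially diluted compound. After 72 h at 37 °C and 5% CO2, with 0.1% DMSO vehicle and a 5 µM positive control on the plates, ATPLite was read. Relative viability, given as percent growth averaged over up to triplicate wells, was rescaled so that 1 is full and 0 is none.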

SMILES | relative viability (0.00017 µM) | relative viability (0.00051 µM) | relative viability (0.00152 µM) | relative viability (0.00457 µM) | relative viability (0.01372 µM) | relative viability (0.04115 µM) | relative viability (0.1235 µM) | relative viability (0.3704 µM) | relative viability (1.111 µM) | relative viability (3.333 µM) | relative viability (10 µM)
O=C(Nc1cnn2ccc(N3CCC[C@@H]3c3cc(F)ccc3F)nc12)N1CC[C@H](O)C1 [Larotrectinib] | 1.07 ± 0.043 | 1.07 ± 0.027 | 1 ± 0.033 | 1.01 ± 0.057 | 1.03 ± 0.034 | 0.954 ± 0.026 | 0.99 ± 0.025 | 0.9488 ± 0.0041 | 0.984 ± 0.053 | 0.979 ± 0.025 | 0.921 ± 0.047
COCc1c(-c2cc3cc(C)cc(OC)c3s2)c2c(N)ncnn2c1CN1CCNC(=O)C1 [Rogaratinib] | 1.075 ± 0.01 | 1.03 ± 0.021 | 0.977 ± 0.025 | 1.01 ± 0.036 | 0.964 ± 0.032 | 0.901 ± 0.028 | 0.879 ± 0.0097 | 0.819 ± 0.031 | 0.795 ± 0.014 | 0.757 ± 0.013 | 0.691 ± 0.021
Cn1cnc2c(F)c(Nc3ccc(Br)cc3F)c(C(=O)NOCCO)cc21 [Binimetinib] | 1.06 ± 0.021 | 1.08 ± 0.032 | 1.04 ± 0.019 | 0.993 ± 0.018 | 0.981 ± 0.038 | 0.889 ± 0.065 | 0.841 ± 0.092 | 0.832 ± 0.019 | 0.806 ± 0.019 | 0.739 ± 0.026 | 0.661 ± 0.013
Cn1cc(-c2cc3c(N4CCN(c5ncc([C@@](C)(N)c6ccc(F)cc6)cn5)CC4)ncnn3c2)cn1 [Avapritinib] | 0.96 ± 0.072 | 0.905 ± 0.043 | 0.894 ± 0.057 | 0.92 ± 0.012 | 0.894 ± 0.04 | 0.883 ± 0.051 | 0.871 ± 0.036 | 0.819 ± 0.04 | 0.819 ± 0.02 | 0.776 ± 0.03 | 0.715 ± 0.042
C[C@]1(O)C[C@@H](c2nc(-c3ccc4ccc(-c5ccccc5)nc4c3)c3c(N)nccn32)C1 [Linsitinib] | 1.03 ± 0.017 | 1 ± 0.024 | 1.03 ± 0.03 | 0.977 ± 0.024 | 1.03 ± 0.017 | 1.01 ± 0.014 | 0.978 ± 0.041 | 0.967 ± 0.029 | 0.9847 ± 0.0087 | 0.949 ± 0.05 | 0.866 ± 0.024
Cc1cc(Nc2ncnc3ccc(NC4=NC(C)(C)CO4)cc23)ccc1Oc1ccn2ncnc2c1 [Tucatinib] | 1.06 ± 0.053 | 1.04 ± 0.03 | 1.06 ± 0.03 | 1.04 ± 0.043 | 0.989 ± 0.045 | 0.931 ± 0.026 | 0.936 ± 0.031 | 0.895 ± 0.026 | 0.855 ± 0.053 | 0.897 ± 0.064 | 0.936 ± 0.0098
Nc1cc(C(F)(F)F)c(-c2cc(N3CCOCC3)nc(N3CCOCC3)n2)cn1 [Buparlisib] | 0.984 ± 0.018 | 0.956 ± 0.011 | 0.971 ± 0.011 | 0.982 ± 0.042 | 0.966 ± 0.059 | 0.9295 ± 0.0043 | 0.889 ± 0.03 | 0.835 ± 0.018 | 0.654 ± 0.0079 | 0.381 ± 0.015 | 0.266 ± 0.0047
C[C@@H]1CCN(C(=O)CC#N)C[C@@H]1N(C)c1ncnc2[nH]ccc12 [Tofacitinib] | 1.08 ± 0.025 | 1.07 ± 0.06 | 1.03 ± 0.036 | 1.04 ± 0.027 | 0.986 ± 0.039 | 1.02 ± 0.031 | 0.989 ± 0.033 | 1.01 ± 0.034 | 0.998 ± 0.054 | 1 ± 0.022 | 0.884 ± 0.035
COc1cc2/c(=N/c3ccc(Br)cc3F)nc[nH]c2cc1OCC1CCN(C)CC1 [Vandetanib] | 0.952 ± 0.029 | 0.962 ± 0.017 | 0.941 ± 0.04 | 0.988 ± 0.018 | 0.976 ± 0.029 | 0.952 ± 0.032 | 0.957 ± 0.045 | 0.9245 ± 0.0051 | 0.92 ± 0.013 | 0.558 ± 0.019 | 0.0143 ± 0.0022
CCCS(=O)(=O)Nc1ccc(F)c(C(=O)c2c[nH]c3ncc(-c4ccc(Cl)cc4)cc23)c1F [Vemurafenib] | 0.958 ± 0.033 | 0.979 ± 0.055 | 0.965 ± 0.038 | 0.954 ± 0.052 | 1.01 ± 0.011 | 0.993 ± 0.022 | 0.949 ± 0.032 | 0.981 ± 0.031 | 0.925 ± 0.015 | 0.703 ± 0.024 | 0.567 ± 0.14
C=CC(=O)N1CCC([C@@H]2CCNc3c(C(N)=O)c(-c4ccc(Oc5ccccc5)cc4)nn32)CC1 [Zanubrutinib] | 1.07 ± 0.066 | 1.05 ± 0.048 | 1.04 ± 0.034 | 1.03 ± 0.038 | 1.03 ± 0.044 | 1.03 ± 0.044 | 1.02 ± 0.029 | 0.965 ± 0.034 | 0.917 ± 0.057 | 0.828 ± 0.041 | 0.657 ± 0.023
CC(=O)Nc1cccc(-n2c(=O)n(C3CC3)c(=O)c3c(Nc4ccc(I)cc4F)n(C)c(=O)c(C)c32)c1 [Trametinib] | 1.02 ± 0.025 | 1.01 ± 0.034 | 0.942 ± 0.024 | 0.862 ± 0.014 | 0.745 ± 0.014 | 0.69 ± 0.031 | 0.642 ± 0.029 | 0.613 ± 0.012 | 0.571 ± 0.025 | 0.5524 ± 0.0038 | 0.509 ± 0.019
C=CC(=O)N1CCC[C@@H](n2nc(-c3ccc(Oc4ccccc4)cc3)c3c(N)ncnc32)C1 [Ibrutinib] | 1.03 ± 0.041 | 1.04 ± 0.028 | 1 ± 0.032 | 1.013 ± 0.0014 | 0.947 ± 0.03 | 0.945 ± 0.011 | 0.854 ± 0.05 | 0.821 ± 0.012 | 0.746 ± 0.043 | 0.647 ± 0.014 | 0.412 ± 0.021
Cc1ccc(F)c(NC(=O)Nc2ccc(-c3cccc4[nH]nc(N)c34)cc2)c1 [Linifanib] | 1.08 ± 0.035 | 0.998 ± 0.023 | 1.02 ± 0.012 | 1.02 ± 0.015 | 1 ± 0.036 | 1.01 ± 0.057 | 0.982 ± 0.055 | 1.037 ± 0.009 | 1.07 ± 0.018 | 1.07 ± 0.036 | 0.9638 ± 0.0037
